Measured values taken from US5527900A, “N3-alkyl-2',5'-0-silylated-3'-spiro-thymidine derivatives” (Stitching Rega VZW, priority 1991, dated 1996).
In brackets after ≈: the same amount, converted by molar mass. Read-outs that look alike come from different tables or passages of the source.

Key:
HIV-1 (HTLV-IIIB) = test: Anti-retrovirus activity: inhibition of HIV-1-induced cytopathogenicity in MT-4 cells; type: cell-based; conditions: for EC50: Human immunodeficiency virus 1, IIIB; for S.I. (Selectivity Index): Table 1, CC50/EC50, MT-4 cells
From the text: The viruses used were moloney murine sarcoma virus (MSV), HIV-1 (strain HTLV-IIIB, kindly provided by R. C. Gallo and M. Popovic, National Cancer Institute, Bethesda, Md.), HIV-2 (strain LAV-2(ROD)), kindly provided by L. Montagnier (Pasteur Institute, Paris, France), simian immunodeficiency virus (SIV) (strain SIVMAC251, kindly provided by C. Bruck, RIT-Smith-Kline, Rixensart, Belgium).
(§1) In order to evaluate the inhibitory effects against retrovirus-induced cytopathogenicity in MT-4cells, said cells (5×10^5 cells/ml) were suspended in fresh culture medium and infected with HIV-1, HIV-2 or SIOV at 100 times the cell culture infective dose-50 (CCID50) per ml cell suspension (1 CCID50 being the dose infective for 50% of the cell cultures). Then, 100 μl of the infected cell suspension were transferred to microplate wells, mixed with 100 μl of the appropriate dilutions of the test compounds, and further incubated at 37° C. After 5 days, the number of viable cells was determined in a blood cell-counting chamber by trypan blue staining for both virus-infected and mock-infected cell cultures.

MT-4 cell DNA synthesis = test: Incorporation of radiolabeled precursors into MT-4 cell DNA; type: cell-based; conditions: Homo sapiens, MT4, MT-4 cells, 20 to 24 hr
From the text: (§2) The radiolabeled nucleosides [methyl-^3 H]dThd (specific radioactivity: 40 Ci/mmol), [5-^3 H]dUrd (specific radioactivity: 27 Ci/mmol), [5-^3 H]dCyc (specific radioactivity: 18.2 Ci/mmol) and the radiolabeled amino acid L-[4,5-^3 H]leucine (specific radioactivity: 52 Ci/mmol were derived from the Radiochemcial Centre (Amersham, England); [5-^3 H]Urd (specific radioactivity: 21 Ci/mmol) and [5-^3 H]Cyd (specific radioactivity: 21 Ci/mmol) and were obtained from Moravek Biochemicals Inc. (Brea, Calif.)
(§3) The incorporation of [methyl-^3 H]dThd, [5-^3 H]dUrd, [5-^3 H]dCyd, [5-^3 H]Urd, [5-^3 H]Cyd and L-[4,5-^3 H]1eu into TCA-insoluble MT-4 cell material was measured in wells of a 96-well microtiter plate (Falcon-3072, Becton-Dickinson, New Jersey). To each well were added 10^5 MT-4 cells, 0.25 μCi of the radiolabeled precursor and a given amount of test compound. The cells were allowed to proliferate for 20 to 24 hr at 37° C. in a humidified, CO2 -controlled atmosphere. At the end of this incubation period, the contents of the wells (200 μl) were brought onto 25-mm glass fiber filters (type A/E, Gelman Instrument Company, Ann Arbor, Mich.), and mounted on a Millipore 3025 sampling manifold apparatus. The filters were washed twice with 2 ml and 5 ml cold NaCl/Pi (phosphte-buffered saline), twice with 2 and 5 ml cold 10% trichloroacetic acid (TCA), twice with 5 and 7.5 ml cold 5% TCA, and twice with 1 ml cold ethanol.

[1] = tested on: MT-4 cell protein synthesis; test: Incorporation of radiolabeled leucine into MT-4 cell protein; type: cell-based; conditions: Homo sapiens, MT4; MT-4 cells, 20 to 24 hr; read-out: IC50, L-[4,5-3H]leucine incorporation
From the text: as §2, §3

MT-4 cell RNA synthesis = test: Incorporation of radiolabeled precursors into MT-4 cell RNA; type: cell-based; conditions: Homo sapiens, MT4, MT-4 cells, 20 to 24 hr
From the text: as §2, §3

MT-4 cells [2] = test: Cytotoxicity for mock-infected MT-4 cells
Description: as §1

[3] = Cytotoxicity for mock-infected MT-4 cells; conditions: human, mt-4 cells
Description: as §1

HIV-2 strain (EHO) = test: Activity against HIV-2 strain EHO; type: cell-based
[4] = tested on: MT-4 cell DNA, RNA or protein synthesis; test: Incorporation of radiolabeled DNA, RNA or protein precursors into TCA-insoluble MT-4 cell material (summary in words); type: cell-based
From the text: as §2, §3

MT-4 cells [5] = test: Cytotoxicity for MT-4 cells depending on exposure time; type: cell-based; conditions: data not shown
Description: The toxicity of test compounds upon a 2-hr incubation period was determined by exposing MT-4 cells (3.5×10^5 cells/ml) to 100, 20, 4, 0.8 or 0.16 μg/ml of the test compounds for 2 hours at 37° C. Subsequently the cells were washed with culture medium. The pretreated cells were seeded in microplate wells at 70×10^3 cells/200 μl-well and allowed to grow for 3 days at 37° C. Control cultures received similar concentrations of the test compounds during the whole incubation period. Then, cells were counted in a Coulter counter (Harpenden Hertz, England) and the CC50 values were determined for each compound.
Mt-4 cells were suspended in culture medium, infected with HIV-1 and brought into microplate wells as described above.

[6] = AIDS patients; cited from earlier work
[7] = Partition coefficient (Pa) between 1-octanol and 10 mM potassium phosphate buffer; type: physicochemical; conditions: 1-octanol / 10 mM potassium phosphate buffer, pH 7.5, 50 μM
Description: Partition of the test compounds between 1-octanol (Merck, Darmstadt, Germany) and 10 mM potassium phosphate buffer, pH, 7.5 (Merck), was measured as described in Balzarini et al., Biochem, Biophys. Res. Commun. 158: 413-422 (1989). Briefly, a 50 μM concentration of the test compound in potassium phosphate buffer was thoroughly mixed with an equal volume of 1-octanol for 30 min at room temperature. Then, the mixture was further equilibrated at room temperature and UV absorption was measured for the aqueous and alcoholic liquid phases. The partition coefficient (Pa) was calculated as the ratio of the compound concentration present in the 1-octanol phase to the compound concentration present in the aqueous phase.

HIV-1 = test: Antiviral activity upon delayed addition to HIV-1-infected MT-4 cells; type: cell-based; conditions: addition delayed by 41 to 48 hours
Description: as §1
Mt-4 cells were suspended in culture medium, infected with HIV-1 and brought into microplate wells as described above. […] After 5 days, the number of viable cells was determined and the EC50 and CC50 values for the test compounds were defined as described in example 1.

HIV-1 mutant strains = test: Resistance of HIV-1 strains selected against compounds 5, 6 and 7; type: cell-based
[8] = biological target: reverse transcriptase enzyme of the TSAO-resistant HIV-1 strains (HIV-1 M:B_HXB2R, UniProt P04585, E725K); type: binding; conditions: Glu-138 to Lys

Cc1cn([C@@H]2O[C@H](CO[Si](C)(C)C(C)(C)C)[C@@]3(OS(=O)(=O)C=C3N)[C@H]2O[Si](C)(C)C(C)(C)C)c(=O)nc1N [Compound 16, {1-[2', 5'-Bis-O-(tert-butyldimethylsilyl)-β-D-ribofuranosyl]-5-methyl-cytosine}-3'-spiro-5"-{4"-amino-1",2"-oxathiole-2",2"-dioxide}]
EC50 (HIV-1 (HTLV-IIIB); MT4, 120 h): 0.072 µg/mL (≈ 0.122 µM) | S.I. (Selectivity Index) (HIV-1 (HTLV-IIIB)): 246 | IC50 (MT-4 cell DNA synthesis; read-out: IC50, [5-3H]dCyd incorporation): 14 µg/mL (≈ 23.8 µM) | IC50 (MT-4 cell DNA synthesis; read-out: IC50, [5-3H]dUrd incorporation): 9.9 µg/mL (≈ 16.8 µM) | IC50 (MT-4 cell DNA synthesis; read-out: IC50, [methyl-3H]dThd incorporation): 14 µg/mL (≈ 23.8 µM) | IC50 [1]: 13 µg/mL (≈ 22.1 µM) | IC50 (MT-4 cell RNA synthesis; read-out: IC50, [5-3H]Cyd incorporation): 11 µg/mL (≈ 18.7 µM) | IC50 (MT-4 cell RNA synthesis; read-out: IC50, [5-3H]Urd incorporation): 8.9 µg/mL (≈ 15.1 µM) | inhibition of MT-4 cell proliferation (in words) (MT-4 cells [2]): inhibitory to MT-4 cell proliferation | cytotoxicity to MT-4 cells (in words) (MT-4 cells [2]; at 100 μg/ml): not cytotoxic | CC50 at 120 h [3]: 17.7 µg/mL (≈ 30.1 µM) | activity against HIV-2 strain (EHO) (HIV-2 strain (EHO)): inactive | inhibition of incorporation of precursors relative to inhibition of MT-4 cell proliferation ([4]; Table 2 discussion): equally inhibitory | preferential inhibition of incorporation of one precursor over the others ([4]; Table 2 discussion): neither | inhibition of incorporation of dThd, dUrd, dCyd, Urd, Cyd or leucine ([4]; at 100 μg/ml): did not markedly inhibit

Cc1cn([C@H]2C[C@H](N=[N+]=[N-])[C@@H](CO)O2)c(=O)[nH]c1=O [AZT, 3'-Azido-3'-deoxythymidine, reference compound]
cytostatic activity depending on exposure time (MT-4 cells [5]): less cytostatic the shorter its exposure time to MT-4 cells | toxic side effects on long-term treatment [6]: bone marrow suppression | partition coefficient (Pa) ([7]; room temperature): 1.12 | antiviral activity on delayed addition (HIV-1): almost totally lost

CCn1c(=O)c(C)cn([C@@H]2O[C@H](CO[Si](C)(C)C(C)(C)C)[C@@]3(OS(=O)(=O)C=C3N)[C@H]2O[Si](C)(C)C(C)(C)C)c1=O [Compound 7, {1-[2', 5'-Bis-O-(tert-butyldimethylsily)-62 -D-ribofuranosyl]-3-N-ethyl-thymine}-3'-spiro-5"-{4"-amino-1", 2"-oxathiole-2",2"-dioxide}]
Selectivity Index (HIV-1 (HTLV-IIIB)): 1000 | EC50 (HIV-1 (HTLV-IIIB); MT4, 120 h): 0.073 µg/mL (≈ 0.118 µM) | EC50 (HIV-1 (HTLV-IIIB); MT4, read-out: 50% effective concentration (EC50)): 0.073 µg/mL (≈ 0.118 µM) | S.I. (Selectivity Index) (HIV-1 (HTLV-IIIB)): 1000 | presence in the n-octanol phase compared to the aqueous phase [7]: more than 95% | logD at 50 µM ([7]; room temperature): > 1.3 | CC50 at 120 h [3]: 73 µg/mL (≈ 118 µM) | amino acid change in reverse transcriptase of HIV-1 strains selected for resistance (HIV-1 mutant strains): glutamic acid change at position 138 to lysine

Cc1ccnc2c1NC(=O)c1cccnc1N2C1CC1 [Nevirapine, reference compound]
affinity of mutated reverse transcriptase [8]: not for other HIV-1-specific compounds
